How the values were obtained:
Assay type in all cases: in vivo, human
[1] = tested on: alpha-1-antitrypsin (A1AT); assay: ELISA of A1AT in large HDL fraction and in plasma
Text: FIG. 5A-5C. Quantitative measurement of alpha-1-antitrypsin on HDL and in plasma. (FIG. 5A) Individual patient spectral counts for alpha-1-antitrypsin (A1AT) in large HDL at baseline (T0) and after 28 days (T28) of rosuvastatin treatment, n=10 for each time point. The “n=5” indicator points to data from 5 subjects with a high degree of overlap. (FIG. 5B) Quantitative measurement of A1AT in large HDL by ELISA assay. (FIG. 5C) Time course of plasma A1AT concentrations during rosuvastatin treatment and after two-week washout period (Day 42 time point). * indicates p<0.05 and ** indicates p<0.01 compared to T0.
To more quantitatively evaluate the change in A1AT levels observed in the MS data, we performed ELISA assays to measure A1AT in the large HDL fractions from all subjects.
In addition to measuring the A1AT content of large HDL, we also measured total A1AT in plasma. There was a clear trend of increasing plasma A1AT while on treatment and a return to baseline after a two week treatment washout, this effect was relatively small, approximately 10% (FIG. 5c). […] We calculated an A1AT:HDL-particle ratio (mol:mol) of about 1:100 at baseline and 1:25 after rosuvastatin treatment.

[2] = Clinical pilot study: plasma lipids before and after rosuvastatin; conditions: 28 days vs baseline
Description: This Example describes a small clinical pilot study which assessed the impact of statins on lipoprotein-associated proteins in healthy individuals (n=10) with normal LDL-C (<130 mg/dL), who were treated with the statin rosuvastatin (available commercially as Crestor®) (20 mg/day) for 28 days. Proteomic analysis of size-exclusion chromatography isolated LDL, HDL-L (large) and HDL-S (small) fractions and spectral counting was used to compare relative protein detection before and after statin therapy. Significant protein changes were found in each lipoprotein pool and included both increases and decreases in several proteins involved in lipoprotein metabolism, complement regulation, and acute phase response. Fasting blood samples were obtained from ten healthy volunteers participating in a study of the NIH Center for Human Immunology, intended to evaluate effects of a statin on the immune system. This protocol was approved by the institutional review board of the National Heart, Lung, and Blood Institute (NHLBI) and registered at clinicaltrials.gov (NCT01200836); all participants provided written informed consent. Three males and seven females were enrolled, with an average age of 44.1±11 years. Participants were selected to have normal LDL-C (<130 mg/dL) and were not on any lipid modification therapy prior to the study. Recruited participants were given rosuvastatin (20 mg/day) for 28 days. Blood was collected by venipuncture at the following time points: baseline, 14 and 28 days after rosuvastatin treatment, and 14 days after stopping treatment (washout). Samples were stored at -20° C. Because samples were taken from each participant at baseline and on-treatment, each subject acted as their own control. Lipid and lipoprotein assays were performed on a Siemens Dimension Vista analyzer, using standard enzymatic assays. HDL-C was measured by a direct assay (Siemens) and LDL-C was determined by the Friedewald equation. Lipoprotein particle numbers and average particle sizes were determined from heparinized plasma on a […] Clinical Analyzer (LipoScience).

[3] = Clinical pilot study: lipoprotein particle numbers by nuclear magnetic resonance; conditions: 20 mg/day, 28 days vs baseline
Description: FIG. 1A-1C. Effect of rosuvastatin on plasma lipids and lipoprotein particle numbers. (FIG. 1A) Rosuvastatin effects on total plasma lipid levels (TC=total cholesterol; HDL-C=HDL cholesterol; LDL-C=LDL cholesterol; TG=triglyceride). The effect of rosuvastatin on LDL particle number (FIG. 1B) and HDL particle number (FIG. 1C) were measured by nuclear magnetic resonance. T0 and […] are time points indicating baseline and after 28 days of rosuvastatin treatment, respectively. Data are mean±standard deviation. * indicates p<0.01. Fasting blood samples were obtained from ten healthy volunteers participating in a study of the NIH Center for Human Immunology, intended to evaluate effects of a statin on the immune system. This protocol was approved by the institutional review board of the National Heart, Lung, and Blood Institute (NHLBI) and registered at clinicaltrials.gov (NCT01200836); all participants provided written informed consent. Three males and seven females were enrolled, with an average age of 44.1±11 years. Participants were selected to have normal LDL-C (<130 mg/dL) and were not on any lipid modification therapy prior to the study. […] HDL-C was measured by a direct assay (Siemens) and LDL-C was determined by the Friedewald equation. Lipoprotein particle numbers and average particle sizes were determined from heparinized plasma on a […] […]

In the case of `CC(C)c1nc(N(C)S(C)(=O)=O)nc(-c2ccc(F)cc2)c1/C=C/[C@@H](O)C[C@@H](O)CC(=O)O` [rosuvastatin], the “elevation of A1AT in large HDL fraction, high responders” value ([1]; ELISA, high responders, range) was 5-18 fold, the “increase in A1AT levels in large HDL fraction, low-responders” value ([1]; ELISA, low-responders, range) was 6-36% and the “average increase in HDL-L associated A1AT by ELISA” value ([1]; HDL-L, 28 days vs baseline, all subjects) was 5.7 fold. The “fraction of total A1AT bound to HDL after therapy” value ([1]; estimated from A1AT content of HDL-L and plasma, baseline 0.84±0.037%) was “approximately 4.54±1.73%”, the “increase of total plasma A1AT while on treatment” value ([1]; plasma, return to baseline after two week washout) was “approximately 10%” and the “increase of HDL-C” value ([2]; 20 mg/day, not statistically significant) was 3.6%. For the same compound, the “change in LDL-C” value ([2]; 20 mg/day, p<0.001) was −50%, the change in triglyceride ([2]; 20 mg/day, p<0.01) was −29% and the “change in total cholesterol” value ([2]; healthy subjects n=10, 20 mg/day, p<0.001) was −28%. For the same compound, the “increase of HDL-p” value ([3]; not statistically significant) was 6.2% and the “reduction of LDL particle number (LDL-p)” value ([3]; p<0.001) was 51%.
